# Test results from paper PMC10607160 (International Journal of Molecular Sciences, 2023).
# pIC50: −log10 of the molar value.
# Experiments:
# [1] = molecular target: E. coli Trx1 / E. coli TrxR (thioredoxin system) (Escherichia coli, UniProt P0AA25); assay: Disulfide bond reduction assay by EcoTrx1 (NADPH absorbance at 340 nm); assay type: biochemical; settings: for Absorbance Asample1 / Absorbance Asample2 / Absorbance Average1, 2: A340, with TrxR
# Method: The assay employed was based on changes in the absorbance at 340 nm from the oxidation of NADPH using a modified version of the protocol laid out in [90]. Briefly, the decrease in A340 was measured in 96-well plates containing 100 μL of 200 mM potassium phosphate pH 7.4, 1 mM EDTA, 0.1 mg/mL BSA, 200 μM NADPH, 2 μM E. coli Trx1 and 10 nM E. coli TrxR for 5 min at 25 °C with insulin at a final concentration of 0.067 mM (0.2 mM disulfides) (see Table S2). The reduction of con7 was measured at a final concentration of 0.2 mM (see Table S3). Blanks were samples without EcoTrxR.
# Figure 4 Reduction of (A) con7 and (B) insulin by EcoTrx1. The assay mixture contains 200 mM potassium phosphate pH 7.4, 1 mM EDTA, 0.1 mg/mL BSA, 200 μM NADPH, 2 μM Escherichia coli Trx1, 10 nM E. coli TrxR, (A) 0.2 mM con7 or (B) 0.067 mM (0.2 mM disulfides) insulin. The reaction was carried out at 25 °C by monitoring the decrease of NADPH absorbance at 340 nm for (A) con7 in the absence ( [drawing 1] ) or presence of TrxR ( [drawing 2] ) and (B) insulin in the absence ( [drawing 3] ) or presence of TrxR ( [drawing 4] ).
# [2] = molecular target: T1, human GnRHR I (Homo sapiens, UniProt P30968); assay: Competitive radioligand binding (125I-DTyr6-His5-GnRH) on membranes from HEK 293 cells stably expressing GnRHR I; settings: competition with 125I-DTyr6-His5-GnRH, HEK 293 membranes, 4 °C 16-19 h, one-site model; read-out: apparent binding affinity (IC50)
# T1 construct: expressed in transfected cells
# T1 sequence (P30968 1-328): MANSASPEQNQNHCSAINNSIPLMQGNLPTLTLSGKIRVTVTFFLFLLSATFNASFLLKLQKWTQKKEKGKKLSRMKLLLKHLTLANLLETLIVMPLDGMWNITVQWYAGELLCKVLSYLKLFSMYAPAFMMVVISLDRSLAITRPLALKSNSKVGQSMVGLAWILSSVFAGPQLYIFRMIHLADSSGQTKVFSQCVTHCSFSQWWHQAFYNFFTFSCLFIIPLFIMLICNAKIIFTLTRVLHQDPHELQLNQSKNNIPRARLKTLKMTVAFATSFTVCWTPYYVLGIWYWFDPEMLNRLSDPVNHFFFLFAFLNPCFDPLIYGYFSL
# [3] = Solubility issue noted in the binding experiments; assay type: physicochemical; settings: in binding assay
# Method: The data were fitted to a one-site competition model via nonlinear regression and the IC50 values were determined as described in Section 3.4.
# Chain of E. coli Trx1 / E. coli TrxR (thioredoxin system) (P0AA25 2-109): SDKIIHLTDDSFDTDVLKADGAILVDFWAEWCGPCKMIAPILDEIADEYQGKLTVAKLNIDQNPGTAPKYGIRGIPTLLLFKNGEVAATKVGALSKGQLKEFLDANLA
structure (smiles),measurement,setting,value
CCNC(=O)[C@@H]1CCCN1C(=O)[C@H](CCCNC(=N)N)NC(=O)[C@H](CC(C)C)NC(=O)[C@@H](CCCCNC(=O)CCCCCNC(=O)CCSSCC(=O)OCCNCCNc1ccc(NCCNCCO)c2c1C(=O)c1c(O)ccc(O)c1C2=O)NC(=O)[C@H](Cc1ccc(O)cc1)NC(=O)[C@H](CO)NC(=O)[C@H](Cc1c[nH]c2ccccc12)NC(=O)[C@H](Cc1c[nH]cn1)NC(=O)[C@@H]1CCC(=O)N1 [con7],speed of reduction compared with insulin,"[1]; 0.2 mM con7 vs 0.067 mM insulin (0.2 mM disulfides), 25 °C",more rapid
same,Absorbance Asample1,[1]; 0 sec,1.004
same,Absorbance Asample2,[1]; 0 sec,0.982
same,"Absorbance Average1, 2",[1]; 0 sec,0.993
same,Absorbance Asample1,[1]; 9 sec,1.004
same,Absorbance Asample2,[1]; 9 sec,0.980
same,"Absorbance Average1, 2",[1]; 9 sec,0.992
same,Absorbance Asample1,[1]; 18 sec,1.004
same,Absorbance Asample2,[1]; 18 sec,0.981
same,"Absorbance Average1, 2",[1]; 18 sec,0.992
same,Absorbance Asample1,[1]; 27 sec,1.003
same,Absorbance Asample2,[1]; 27 sec,0.980
same,"Absorbance Average1, 2",[1]; 27 sec,0.991
same,Absorbance Asample1,[1]; 36 sec,1.002
same,Absorbance Asample2,[1]; 36 sec,0.978
same,"Absorbance Average1, 2",[1]; 36 sec,0.990
same,Absorbance Asample1,[1]; 45 sec,1.000
same,Absorbance Asample2,[1]; 45 sec,0.979
same,"Absorbance Average1, 2",[1]; 45 sec,0.989
same,Absorbance Asample1,[1]; 54 sec,1.000
same,Absorbance Asample2,[1]; 54 sec,0.977
same,"Absorbance Average1, 2",[1]; 54 sec,0.988
same,Absorbance Asample1,[1]; 63 sec,0.999
same,Absorbance Asample2,[1]; 63 sec,0.977
same,"Absorbance Average1, 2",[1]; 63 sec,0.988
same,Absorbance Asample1,[1]; 72 sec,0.999
same,Absorbance Asample2,[1]; 72 sec,0.976
same,"Absorbance Average1, 2",[1]; 72 sec,0.987
same,Absorbance Asample1,[1]; 81 sec,0.998
same,Absorbance Asample2,[1]; 81 sec,0.973
same,"Absorbance Average1, 2",[1]; 81 sec,0.985
same,Absorbance Asample1,[1]; 90 sec,0.997
same,Absorbance Asample2,[1]; 90 sec,0.974
same,"Absorbance Average1, 2",[1]; 90 sec,0.985
same,Absorbance Asample1,[1]; 99 sec,0.996
same,Absorbance Asample2,[1]; 99 sec,0.972
same,"Absorbance Average1, 2",[1]; 99 sec,0.984
same,Absorbance Asample1,[1]; 108 sec,0.996
same,Absorbance Asample2,[1]; 108 sec,0.971
same,"Absorbance Average1, 2",[1]; 108 sec,0.983
same,Absorbance Asample1,[1]; 117 sec,0.995
same,Absorbance Asample2,[1]; 117 sec,0.971
same,"Absorbance Average1, 2",[1]; 117 sec,0.983
same,Absorbance Asample1,[1]; 126 sec,0.994
same,Absorbance Asample2,[1]; 126 sec,0.970
same,"Absorbance Average1, 2",[1]; 126 sec,0.982
same,Absorbance Asample1,[1]; 135 sec,0.992
same,Absorbance Asample2,[1]; 135 sec,0.968
same,"Absorbance Average1, 2",[1]; 135 sec,0.980
same,Absorbance Asample1,[1]; 144 sec,0.991
same,Absorbance Asample2,[1]; 144 sec,0.967
same,"Absorbance Average1, 2",[1]; 144 sec,0.979
same,Absorbance Asample1,[1]; 153 sec,0.990
same,Absorbance Asample2,[1]; 153 sec,0.966
same,"Absorbance Average1, 2",[1]; 153 sec,0.978
same,Absorbance Asample1,[1]; 162 sec,0.990
same,Absorbance Asample2,[1]; 162 sec,0.966
same,"Absorbance Average1, 2",[1]; 162 sec,0.978
same,Absorbance Asample1,[1]; 171 sec,0.989
same,Absorbance Asample2,[1]; 171 sec,0.964
same,"Absorbance Average1, 2",[1]; 171 sec,0.977
same,Absorbance Asample1,[1]; 180 sec,0.989
same,Absorbance Asample2,[1]; 180 sec,0.965
same,"Absorbance Average1, 2",[1]; 180 sec,0.977
same,Absorbance Asample1,[1]; 189 sec,0.989
same,Absorbance Asample2,[1]; 189 sec,0.964
same,"Absorbance Average1, 2",[1]; 189 sec,0.977
same,Absorbance Asample1,[1]; 198 sec,0.988
same,Absorbance Asample2,[1]; 198 sec,0.962
same,"Absorbance Average1, 2",[1]; 198 sec,0.975
same,Absorbance Asample1,[1]; 207 sec,0.986
same,Absorbance Asample2,[1]; 207 sec,0.961
same,"Absorbance Average1, 2",[1]; 207 sec,0.974
same,Absorbance Asample1,[1]; 216 sec,0.987
same,Absorbance Asample2,[1]; 216 sec,0.960
same,"Absorbance Average1, 2",[1]; 216 sec,0.974
same,Absorbance Asample1,[1]; 225 sec,0.985
same,Absorbance Asample2,[1]; 225 sec,0.959
same,"Absorbance Average1, 2",[1]; 225 sec,0.972
same,Absorbance Asample1,[1]; 234 sec,0.984
same,Absorbance Asample2,[1]; 234 sec,0.957
same,"Absorbance Average1, 2",[1]; 234 sec,0.971
same,Absorbance Asample1,[1]; 243 sec,0.984
same,Absorbance Asample2,[1]; 243 sec,0.955
same,"Absorbance Average1, 2",[1]; 243 sec,0.970
same,Absorbance Asample1,[1]; 252 sec,0.982
same,Absorbance Asample2,[1]; 252 sec,0.954
same,"Absorbance Average1, 2",[1]; 252 sec,0.968
same,Absorbance Asample1,[1]; 261 sec,0.982
same,Absorbance Asample2,[1]; 261 sec,0.952
same,"Absorbance Average1, 2",[1]; 261 sec,0.967
same,Absorbance Asample1,[1]; 270 sec,0.980
same,Absorbance Asample2,[1]; 270 sec,0.952
same,"Absorbance Average1, 2",[1]; 270 sec,0.966
same,Absorbance Asample1,[1]; 279 sec,0.981
same,Absorbance Asample2,[1]; 279 sec,0.951
same,"Absorbance Average1, 2",[1]; 279 sec,0.966
same,Absorbance Asample1,[1]; 288 sec,0.979
same,Absorbance Asample2,[1]; 288 sec,0.949
same,"Absorbance Average1, 2",[1]; 288 sec,0.964
same,Absorbance Asample1,[1]; 297 sec,0.978
same,Absorbance Asample2,[1]; 297 sec,0.949
same,"Absorbance Average1, 2",[1]; 297 sec,0.963
same,reduction of disulfide bond by the thioredoxin system,[1]; decrease of NADPH absorbance over time in samples containing TrxR,successful
same,pIC50,[2],10.22
CCNC(=O)[C@@H]1CCCN1C(=O)[C@H](CCCNC(=N)N)NC(=O)[C@H](CC(C)C)NC(=O)[C@@H](CSSCC(=O)NCCCCNc1ccc(O)c2c1C(=O)c1ccccc1C2=O)NC(=O)[C@H](Cc1ccc(O)cc1)NC(=O)[C@H](CO)NC(=O)[C@H](Cc1c[nH]c2ccccc12)NC(=O)[C@H](Cc1c[nH]cn1)NC(=O)[C@@H]1CCC(=O)N1 [con4],solubility,[3],solubility issues
